Measurements taken from ChEMBL document CHEMBL1201862, “PubChem BioAssay data set” (2004).
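Growth conditions: 96-well plates. Treatment: test compound, 48 hours, 5 concentrations. Analysis: linear interpolation between bracketing concentrations; unreached endpoints set to highest concentration. GI50 = concentration required for 50% inhibition of growth.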 The source made the active and inactive calls. No stated cut-off is given here; in the data, active = GI50 up to about 1.1 µM and inactive = higher.

Columns and labels:
Experiment in all cases: DTP human tumour cell line panel, 48 h
HT-29 = test system: HT-29
T47D = test system: T47D
SK-OV-3 = test system: SK-OV-3
SK-MEL-2 = test system: SK-MEL-2
HOP-62 = test system: HOP-62
U-251 = test system: U-251
Malme-3M = test system: Malme-3M
RPMI-8226 = test system: RPMI-8226
SF-268 = test system: SF-268
DU-145 = test system: DU-145
RXF 393 = test system: RXF 393
OVCAR-8 = test system: OVCAR-8
SR = test system: SR
M14 = test system: M14
TK-10 = test system: TK-10
CAKI-1 = test system: CAKI-1
MOLT-4 = test system: MOLT-4
SF-295 = test system: SF-295
HCT-15 = test system: HCT-15
BT-549 = test system: BT-549

**Q.** What does the source list for O=C1C(=c2cc3c(c4ccccc24)=NC24CCCCC2C(c2ccccc2)C=C(c2ccccc2)N34)C(=O)c2ccccc21 (stereo not drawn)?
**A.** GI50 (HT-29): 53 µM (inactive); GI50 (T47D): 3.48 µM (inactive); GI50 (SK-OV-3): > 100 µM (inactive); GI50 (SK-MEL-2): 42.5 µM (inactive); GI50 (HOP-62): 74 µM (inactive); GI50 (U-251): 36.8 µM (inactive); GI50 (Malme-3M): 45.1 µM (inactive); GI50 (RPMI-8226): 11.4 µM (inactive); GI50 (SF-268): 30.3 µM (inactive); GI50 (DU-145): 57.3 µM (inactive); GI50 (RXF 393): 18.5 µM (inactive); GI50 (OVCAR-8): 50.4 µM (inactive); GI50 (SR): 26.4 µM (inactive); GI50 (M14): 44 µM (inactive); GI50 (TK-10): > 100 µM (inactive); GI50 (CAKI-1): 53 µM (inactive); GI50 (MOLT-4): 16.6 µM (inactive); GI50 (SF-295): > 100 µM (inactive)

**Q.** How did the GI50 (HT-29) turn out when c1cncc(-c2ncc3cccnc3n2)c1 was run?
**A.** > 100 µM (inactive)

**Q.** What about the GI50 (SK-OV-3) of the same compound?
**A.** > 100 µM (inactive)

**Q.** And the GI50 (SK-MEL-2)?
**A.** > 100 µM (inactive)

**Q.** What about the GI50 (HOP-62) of the same compound?
**A.** > 100 µM (inactive)

**Q.** What about the GI50 (U-251) of the same compound?
**A.** > 100 µM (inactive)

**Q.** What about the GI50 (Malme-3M) of the same compound?
**A.** > 100 µM (inactive)

**Q.** And the GI50 (RPMI-8226)?
**A.** > 100 µM (inactive)

**Q.** And the GI50 (DU-145)?
**A.** 43.4 µM (inactive)

**Q.** And the GI50 (RXF 393)?
**A.** > 100 µM (inactive)

**Q.** And the GI50 (OVCAR-8)?
**A.** > 100 µM (inactive)

**Q.** And the GI50 (TK-10)?
**A.** > 100 µM (inactive)

**Q.** What about the GI50 (HCT-15) of the same compound?
**A.** > 100 µM

**Q.** What about the GI50 (CAKI-1) of the same compound?
**A.** > 100 µM (inactive)

**Q.** And the GI50 (BT-549)?
**A.** > 100 µM (inactive)

**Q.** What about the GI50 (MOLT-4) of the same compound?
**A.** > 100 µM (inactive)

**Q.** What about the GI50 (SF-295) of the same compound?
**A.** > 100 µM (inactive)

**Q.** With Cc1cc2c(cc1Cl)SC(c1ccccc1)C(=O)NS2(=O)=O (stereo not drawn) as the compound, how does the GI50 (HT-29) read?
**A.** 32 µM (inactive)

**Q.** What about the GI50 (T47D) of the same compound?
**A.** 30.1 µM (inactive)

**Q.** And the GI50 (SK-OV-3)?
**A.** 31.9 µM (inactive)

**Q.** What about the GI50 (SK-MEL-2) of the same compound?
**A.** 17.3 µM (inactive)

**Q.** And the GI50 (HOP-62)?
**A.** 44.3 µM (inactive)

**Q.** And the GI50 (U-251)?
**A.** 23.1 µM (inactive)

**Q.** And the GI50 (RPMI-8226)?
**A.** 34 µM (inactive)

**Q.** What about the GI50 (SF-268) of the same compound?
**A.** 33.3 µM (inactive)

**Q.** What about the GI50 (DU-145) of the same compound?
**A.** 34.9 µM (inactive)

**Q.** And the GI50 (RXF 393)?
**A.** 31.4 µM (inactive)

**Q.** What about the GI50 (OVCAR-8) of the same compound?
**A.** 36.2 µM (inactive)

**Q.** And the GI50 (SR)?
**A.** 27.5 µM (inactive)

**Q.** What about the GI50 (M14) of the same compound?
**A.** 39 µM (inactive)

**Q.** And the GI50 (TK-10)?
**A.** 37.6 µM (inactive)

**Q.** And the GI50 (HCT-15)?
**A.** 25 µM

**Q.** What about the GI50 (CAKI-1) of the same compound?
**A.** 38.9 µM (inactive)

**Q.** And the GI50 (MOLT-4)?
**A.** 26 µM (inactive)

**Q.** What about the GI50 (SF-295) of the same compound?
**A.** 28.3 µM (inactive)

**Q.** What does the source list for O=C(O)c1ccccc1CC(Cc1ccc2c(c1)CCC2)C(=O)O (stereo not drawn)?
**A.** GI50 (HT-29): > 100 µM (inactive); GI50 (T47D): > 100 µM (inactive); GI50 (SK-OV-3): > 100 µM (inactive); GI50 (SK-MEL-2): > 100 µM (inactive); GI50 (HOP-62): > 100 µM (inactive); GI50 (U-251): > 100 µM (inactive); GI50 (Malme-3M): > 100 µM (inactive); GI50 (RPMI-8226): > 100 µM (inactive); GI50 (SF-268): > 100 µM (inactive); GI50 (DU-145): > 100 µM (inactive); GI50 (RXF 393): > 100 µM (inactive); GI50 (OVCAR-8): > 100 µM (inactive); GI50 (SR): 8.07 µM (inactive); GI50 (M14): > 100 µM (inactive); GI50 (TK-10): > 100 µM (inactive); GI50 (HCT-15): > 100 µM; GI50 (CAKI-1): > 100 µM (inactive); GI50 (MOLT-4): > 100 µM (inactive); GI50 (SF-295): > 100 µM (inactive)

**Q.** Which GI50 (HT-29) does the source give for CN(C)/C=N/c1ccc2nonc2c1 here?
**A.** > 100 µM (inactive)

**Q.** What about the GI50 (T47D) of the same compound?
**A.** > 100 µM (inactive)

**Q.** What about the GI50 (SK-OV-3) of the same compound?
**A.** > 100 µM (inactive)

**Q.** And the GI50 (SK-MEL-2)?
**A.** > 100 µM (inactive)

**Q.** And the GI50 (HOP-62)?
**A.** > 100 µM (inactive)

**Q.** And the GI50 (Malme-3M)?
**A.** > 100 µM (inactive)

**Q.** And the GI50 (RPMI-8226)?
**A.** > 100 µM (inactive)

**Q.** What about the GI50 (SF-268) of the same compound?
**A.** > 100 µM (inactive)

**Q.** And the GI50 (DU-145)?
**A.** > 100 µM (inactive)

**Q.** And the GI50 (RXF 393)?
**A.** > 100 µM (inactive)

**Q.** What about the GI50 (OVCAR-8) of the same compound?
**A.** > 100 µM (inactive)

**Q.** What about the GI50 (SR) of the same compound?
**A.** > 100 µM (inactive)

**Q.** What about the GI50 (M14) of the same compound?
**A.** > 100 µM (inactive)

**Q.** What about the GI50 (TK-10) of the same compound?
**A.** > 100 µM (inactive)

**Q.** And the GI50 (HCT-15)?
**A.** > 100 µM

**Q.** And the GI50 (CAKI-1)?
**A.** > 100 µM (inactive)

**Q.** What about the GI50 (MOLT-4) of the same compound?
**A.** > 100 µM (inactive)

**Q.** What about the GI50 (SF-295) of the same compound?
**A.** > 100 µM (inactive)

**Q.** Which GI50 (HT-29) does the source give for CC1OC2=N[C@@H]1C(=O)N[C@@H](C(C)C)C1=N[C@H](C(=O)N[C@@H](C(C)C)C3=N[C@H](C(=O)N[C@@H](C(C)C)C4=N[C@H](C(=O)N[C@H]2C(C)C)C(C)O4)C(C)O3)C(C)O1 (stereo partly drawn) here?
**A.** > 10 µM (inactive)

**Q.** And the GI50 (T47D)?
**A.** > 10 µM (inactive)

**Q.** What about the GI50 (SK-OV-3) of the same compound?
**A.** > 10 µM (inactive)

**Q.** And the GI50 (SK-MEL-2)?
**A.** > 10 µM (inactive)

**Q.** And the GI50 (HOP-62)?
**A.** > 10 µM (inactive)

**Q.** What about the GI50 (U-251) of the same compound?
**A.** > 10 µM (inactive)

**Q.** And the GI50 (Malme-3M)?
**A.** > 10 µM (inactive)

**Q.** What about the GI50 (RPMI-8226) of the same compound?
**A.** > 10 µM (inactive)

**Q.** And the GI50 (SF-268)?
**A.** > 10 µM (inactive)

**Q.** And the GI50 (DU-145)?
**A.** > 10 µM (inactive)

**Q.** What about the GI50 (RXF 393) of the same compound?
**A.** > 10 µM (inactive)

**Q.** And the GI50 (OVCAR-8)?
**A.** > 10 µM (inactive)

**Q.** What about the GI50 (SR) of the same compound?
**A.** > 10 µM (inactive)

**Q.** What about the GI50 (M14) of the same compound?
**A.** > 10 µM (inactive)

**Q.** What about the GI50 (TK-10) of the same compound?
**A.** > 10 µM (inactive)

**Q.** What about the GI50 (HCT-15) of the same compound?
**A.** > 10 µM

**Q.** What about the GI50 (CAKI-1) of the same compound?
**A.** > 10 µM (inactive)

**Q.** What about the GI50 (MOLT-4) of the same compound?
**A.** > 10 µM (inactive)

**Q.** And the GI50 (SF-295)?
**A.** > 10 µM (inactive)
